Data published in patent US20080275083A1, “2,3,4,9-TETRAHYDRO-1H-CARBAZOLES” (priority 2007, published 2008).

These molecules were tested against T1, human FSH receptor (Homo sapiens, UniProt P23945) (assay: HTRF assay for measuring cAMP in cells (FSH-antagonistic effect)). Details: hFSHR clone 16 cells (CHO cells stably transfected with the human FSH receptor), in the presence of 1e-9 mol/l hFSH.
T1 construct: expressed in transfected cells; host or cells: CHO cells (hFSHR clone 16)
T1 sequence (P23945 18-695): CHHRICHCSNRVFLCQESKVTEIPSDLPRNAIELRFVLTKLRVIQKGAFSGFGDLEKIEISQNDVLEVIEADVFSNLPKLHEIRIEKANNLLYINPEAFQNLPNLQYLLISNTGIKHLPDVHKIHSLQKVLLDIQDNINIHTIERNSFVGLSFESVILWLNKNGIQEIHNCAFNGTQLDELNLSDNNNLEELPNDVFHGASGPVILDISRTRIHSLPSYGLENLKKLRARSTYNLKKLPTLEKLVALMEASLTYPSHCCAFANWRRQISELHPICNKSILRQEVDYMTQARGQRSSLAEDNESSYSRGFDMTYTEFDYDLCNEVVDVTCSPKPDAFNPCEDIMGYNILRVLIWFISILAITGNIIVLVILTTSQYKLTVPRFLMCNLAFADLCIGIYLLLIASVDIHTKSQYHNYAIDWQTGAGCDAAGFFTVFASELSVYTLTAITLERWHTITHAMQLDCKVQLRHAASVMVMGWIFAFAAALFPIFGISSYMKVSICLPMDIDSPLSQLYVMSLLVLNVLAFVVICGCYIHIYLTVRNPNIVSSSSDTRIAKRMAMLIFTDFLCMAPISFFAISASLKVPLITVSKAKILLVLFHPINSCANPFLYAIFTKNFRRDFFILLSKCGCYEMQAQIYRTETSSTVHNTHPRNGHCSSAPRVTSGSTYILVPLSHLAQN
Assay type: cell-based
Experimental: HTRF Assay for Measuring cAMP in Cells
The method is based on a competitive immunoassay between native cAMP, which has been produced by the cells, and cAMP which is labelled with XL665. The tracer binding was visualized by a monoclonal antibody, anti-cAMP labelled with cryptate [HTRF=homogeneous time-resolved fluorescence].
The specific signal is inversely proportional to the cAMP concentration of the samples employed.
The 665 nm/620 nm fluorescence ratio was evaluated.
The following material was used: 96-well plates for the tissue culture, 96-well plates with black edge and black base (e.g. Fluotrac 600 from Greiner), 96-well plates for the substance dilutions of polypropylene and cAMP Femtomolar (4000 wells Kit, CIS Bio International #62AM1PEC).
The following reagents were used: BSA (bovine serum albumin) Fraction V protease-free, IBMX (3-isobutyl-1-methylxanthine), hFSH (human follicle stimulating hormone), Triton X-100 analytical grade, potassium fluoride analytical grade, G 418 (Geneticin) and Accutase.
Buffer 1 (washing and testing buffer) contained PBS, 1 mM CaCl2, 1 mM MgCl2, 0.2% glucose; 0.1% BSA, 1 mM IBMX. Buffer 2 (2× lysis buffer) contained 1% Triton X-100 in PBS (without CaCl2 and MgCl2). Buffer 3 (assay buffer) contained 50 mM potassium phosphate buffer (pH 7.0); 800 mM potassium fluoride; 0.2% BSA (always added fresh).
On day 1, the cells were seeded in 96-well plates (3×10^4 cells per well hFSHR clone 16 cells (CHO cells stably transfected with the human FSH receptor in 150 μl of medium). The next day, test substance dilutions were made up. For this purpose, all the substances were diluted in ice-cold buffer 1 (with or without hFSH), and the substance dilutions were placed on ice until applied to the cells.
The cell supernatant was then aspirated off, and the cells were washed 2× with 200 μl of buffer 1. The cells were treated with 60 μl of the appropriate substance concentrations at 37° C. for 2 h. The cells were then lysed with 60 μl of buffer 2 (put onto the supernatant) (on a plate shaker at RT for 30 min).
The test conjugates (XL-665 and anti-cAMP cryptate) were diluted in buffer 3 in accordance with the manufacturers' information. The actual mixture for measurement was pipetted into a black 96-well plate (in each case 15 μl of the cell lysate diluted with 35 μl of buffer 1; firstly 25 μl of XL-665 conjugate were pipetted and, after 10 min, 25 μl of the anti-cAMP cryptate were added). This is followed by incubation at RT for 90 minutes. The measurement was carried out in a PheraStar (BMG).
Dose-effect curve (hFSH) for the human receptor: 1e-8, 3e-9, 1e-9, 3e-10, 1e-10, 3e-11, 1e-11, 3e-12 mol/l.
The test substances were employed in suitable dilutions in the absence (test for agonism) and in the presence of 1e-9 mol/l hFSH.
The values of the well ratio were averaged and then entered directly in SigmaPlot versus the concentrations. The maximum and minimum values were determined for each plate, and half the difference is to be regarded as IC50.
In the case of `COc1ccc2nc(-c3ccccc3)cc(C(=O)NC3(CO)CCc4[nH]c5ccccc5c4C3)c2c1` (stereo not drawn) [Example 4, 6-Methoxy-2-phenyl-quinoline-4-carboxylic acid (3-hydroxymethyl-2,3,4,9-tetrahydro-1H-carbazol-3-yl)-amide], the IC50 is reported as 2000 nM. `COc1ccc(-c2ccc(OC(C)C)c(C(=O)NC3(CO)CCc4[nH]c5ccc(F)cc5c4C3)c2)cc1OC` (stereo not drawn) [Example 18, 4-Isopropoxy-3′,4′-dimethoxy-biphenyl-3-carboxylic acid (6-fluoro-3-hydroxymethyl-2,3,4,9-tetrahydro-1H-carbazol-3-yl)-amide] showed an IC50 of 200 nM. Work on `CC(C)Oc1ccc(-c2cc3ccccc3o2)cc1C(=O)NC1(CO)CCc2[nH]c3ccccc3c2C1` (stereo not drawn) [Example 38, 5-Benzofuran-2-yl-N-(3-hydroxymethyl-2,3,4,9-tetrahydro-1H-carbazol-3-yl)-2-isopropoxy-benzamide] yielded an IC50 of 600 nM. With `CC(C)Oc1ccc(-c2cc3ccccc3o2)cc1C(=O)NC1(CO)CCc2[nH]c3ccc(C(=O)O)cc3c2C1` (stereo not drawn) [Example 39, 6-(5-Benzofuran-2-yl-2-isopropoxy-benzoylamino)-6-hydroxymethyl-6,7,8,9-tetrahydro-5H-carbazole-3-carboxylic acid] the IC50 was 6000 nM. `CC(C)Oc1ccc(-c2cc3ccccc3o2)cc1C(=O)NC1(CO)CCc2[nH]c3ccc(F)cc3c2C1` (stereo not drawn) [Example 42, 5-Benzofuran-2-yl-N-(6-fluoro-3-hydroxymethyl-2,3,4,9-tetrahydro-1H-carbazol-3-yl)-2-isopropoxy-benzamide] was tested, and the IC50 was 350 nM. For `Cc1cccc2c3c([nH]c12)CCC(CO)(NC(=O)c1cc(-c2cc4ccccc4o2)ccc1OC(C)C)C3` (stereo not drawn) [Example 46, 5-Benzofuran-2-yl-N-(3-hydroxymethyl-8-methyl-2,3,4,9-tetrahydro-1H-carbazol-3-yl)-2-isopropoxy-benzamide], the IC50 was 2500 nM.
